{"source": "patent US10512676B2", "about": "“Formulations comprising recombinant acid alpha-glucosidase” (Amicus Therapeutics, Inc., priority 2016, dated 2019)", "key": {"[1]": {"assay": "Plasma miglustat pharmacokinetics, phase 1/2 study in adults with Pompe disease", "format": "in vivo, human", "conditions": "for CL/F: arithmetic mean (CV %)", "procedure": "Mean total GAA protein and miglustat PK results from the first 8 Cohort 1 patients through Visit 9 and the first 2 Cohort 3 patients were assessed."}, "Gaa KO mice": {"tested_on": "Gaa KO mice", "assay": "Muscle function in Gaa-knockout mice, 12 biweekly administrations (grip strength, wire hang)", "format": "in vivo, mouse", "conditions": "12 biweekly administrations, ERT 20 mg/kg (miglustat 10 mg/kg)", "from_the_text": "In FIG. 18A, * indicates statistically significant compared to Lumizyme® alone (p<0.05, 2-sided t-test). In FIGS. 19A-19G, * indicates statistically significant compared to Lumizyme® alone (p<0.05, multiple comparison using Dunnett's method under one-way ANOVA analysis)."}, "CIMPR": {"target": "CIMPR (Homo sapiens, UniProt P11717)", "sequence (P11717 41-2491, species assumed)": "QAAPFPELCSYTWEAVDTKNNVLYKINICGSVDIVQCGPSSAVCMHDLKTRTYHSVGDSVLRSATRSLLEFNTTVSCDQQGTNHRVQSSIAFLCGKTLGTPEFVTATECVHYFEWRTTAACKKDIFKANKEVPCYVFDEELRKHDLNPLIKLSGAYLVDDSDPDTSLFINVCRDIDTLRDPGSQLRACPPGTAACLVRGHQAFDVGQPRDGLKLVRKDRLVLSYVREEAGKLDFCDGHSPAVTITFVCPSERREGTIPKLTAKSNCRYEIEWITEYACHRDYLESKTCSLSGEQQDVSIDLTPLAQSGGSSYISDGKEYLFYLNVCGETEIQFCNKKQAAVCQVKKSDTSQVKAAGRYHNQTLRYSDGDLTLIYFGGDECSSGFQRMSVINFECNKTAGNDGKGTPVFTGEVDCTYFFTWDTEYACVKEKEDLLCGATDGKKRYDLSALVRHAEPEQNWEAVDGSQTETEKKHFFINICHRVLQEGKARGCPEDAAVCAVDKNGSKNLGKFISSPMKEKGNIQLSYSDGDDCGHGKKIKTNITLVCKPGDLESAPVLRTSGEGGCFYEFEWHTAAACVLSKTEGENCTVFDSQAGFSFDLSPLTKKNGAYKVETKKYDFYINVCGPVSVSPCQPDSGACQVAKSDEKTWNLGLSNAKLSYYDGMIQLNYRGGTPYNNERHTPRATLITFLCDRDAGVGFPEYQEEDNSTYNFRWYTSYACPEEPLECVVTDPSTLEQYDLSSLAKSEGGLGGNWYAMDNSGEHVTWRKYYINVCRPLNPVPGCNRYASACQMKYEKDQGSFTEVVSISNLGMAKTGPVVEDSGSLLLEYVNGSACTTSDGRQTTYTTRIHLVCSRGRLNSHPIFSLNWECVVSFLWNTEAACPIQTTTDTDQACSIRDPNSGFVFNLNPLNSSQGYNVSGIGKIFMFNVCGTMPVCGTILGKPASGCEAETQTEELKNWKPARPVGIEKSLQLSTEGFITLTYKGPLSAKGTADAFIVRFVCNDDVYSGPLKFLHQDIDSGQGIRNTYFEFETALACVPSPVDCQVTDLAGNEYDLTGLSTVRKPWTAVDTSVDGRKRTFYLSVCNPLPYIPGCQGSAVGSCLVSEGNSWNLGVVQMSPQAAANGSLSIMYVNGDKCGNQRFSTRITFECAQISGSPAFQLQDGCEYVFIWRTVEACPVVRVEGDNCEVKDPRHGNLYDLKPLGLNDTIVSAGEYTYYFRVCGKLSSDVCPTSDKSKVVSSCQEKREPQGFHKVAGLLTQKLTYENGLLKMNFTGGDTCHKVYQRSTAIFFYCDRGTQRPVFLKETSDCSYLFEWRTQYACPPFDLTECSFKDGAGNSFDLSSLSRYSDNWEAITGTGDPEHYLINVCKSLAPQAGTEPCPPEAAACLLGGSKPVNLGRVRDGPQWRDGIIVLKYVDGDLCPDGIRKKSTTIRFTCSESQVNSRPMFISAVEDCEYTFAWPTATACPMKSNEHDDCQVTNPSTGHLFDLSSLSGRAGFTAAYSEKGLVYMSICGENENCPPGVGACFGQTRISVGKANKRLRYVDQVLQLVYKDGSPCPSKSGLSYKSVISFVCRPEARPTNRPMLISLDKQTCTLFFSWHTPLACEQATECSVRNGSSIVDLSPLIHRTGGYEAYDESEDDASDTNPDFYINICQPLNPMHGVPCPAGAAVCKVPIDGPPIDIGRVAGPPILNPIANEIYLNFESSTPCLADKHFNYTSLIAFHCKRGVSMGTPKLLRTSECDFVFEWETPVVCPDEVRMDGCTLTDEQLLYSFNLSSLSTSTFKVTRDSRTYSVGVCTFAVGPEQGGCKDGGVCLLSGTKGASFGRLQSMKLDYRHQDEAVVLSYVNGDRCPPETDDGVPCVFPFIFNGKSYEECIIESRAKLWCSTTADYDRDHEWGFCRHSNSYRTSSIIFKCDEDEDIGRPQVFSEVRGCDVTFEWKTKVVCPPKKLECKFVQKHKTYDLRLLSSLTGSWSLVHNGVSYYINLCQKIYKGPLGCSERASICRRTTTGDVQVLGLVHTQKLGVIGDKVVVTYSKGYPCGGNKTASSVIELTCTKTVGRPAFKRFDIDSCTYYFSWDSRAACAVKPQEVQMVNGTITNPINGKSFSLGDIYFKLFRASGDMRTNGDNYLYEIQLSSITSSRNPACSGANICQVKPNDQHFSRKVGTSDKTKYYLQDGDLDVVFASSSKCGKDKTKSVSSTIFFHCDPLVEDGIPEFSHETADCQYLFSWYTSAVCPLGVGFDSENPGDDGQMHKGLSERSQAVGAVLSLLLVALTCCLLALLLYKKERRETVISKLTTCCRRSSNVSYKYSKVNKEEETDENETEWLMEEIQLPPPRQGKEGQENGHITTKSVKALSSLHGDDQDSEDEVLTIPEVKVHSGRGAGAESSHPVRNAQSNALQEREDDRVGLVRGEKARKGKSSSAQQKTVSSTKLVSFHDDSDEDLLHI", "assay": "CIMPR affinity chromatography (CIMPR column, free M6P gradient)", "format": "binding", "conditions": "fraction of total enzyme by GAA activity; for rhGAA that did not bind to the CIMPR: eluted prior to addition of M6P", "procedure": "To evaluate the ability of the rhGAA in Myozyme® and Lumizyme®, the only currently approved treatments for Pompe disease, these rhGAA preparations were injected onto a CIMPR column (which binds rhGAA having M6P groups) and subsequently eluted with a free […] gradient. Fractions were collected in 96-well plate and GAA activity assayed by 4MU-α-glucose substrate. The relative amounts of bound and unbound rhGAA were determined based on GAA activity and reported as the fraction of total enzyme."}, "[2]": {"tested_on": "normal and Pompe fibroblast cell lines", "assay": "Cellular uptake of rhGAA in normal and Pompe fibroblast cell lines", "format": "cell-based", "procedure": "The relative cellular uptake of ATB200 and Lumizyme® rhGAA were compared using normal and Pompe fibroblast cell lines. […] After 16-hr incubation, external rhGAA was inactivated with TRIS base and cells were washed 3-times with PBS prior to harvest. Internalized GAA measured by 4MU-α-Glucoside hydrolysis and was graphed relative to total cellular protein and the results appear in FIGS. 11A-B."}, "[3]": {"assay": "Apparent plasma half-life in vivo"}}}
{"molecule": "CCCCN1C[C@H](O)[C@@H](O)[C@H](O)[C@H]1CO", "note": "[Miglustat, miglustat]", "values": [{"measurement": "plasma miglustat kinetics", "setting": "[1]; 130 mg and 260 mg oral", "result": "dose-proportional kinetics"}, {"measurement": "CL/F", "setting": "[1]; High MD", "result": "10.3 (26.4) L/h"}, {"measurement": "CL/F", "setting": "[1]; High SD", "result": "10.6 (33) L/h"}, {"measurement": "CL/F", "setting": "[1]; Low MD", "result": "10.2 (23.9) L/h"}, {"measurement": "CL/F", "setting": "[1]; Low SD", "result": "10.6 (23) L/h"}]}
{"molecule": "Lumizyme®: conventional rhGAA product containing alglucosidase alfa, Genzyme", "values": [{"measurement": "functional muscle strength (grip strength and wire hang tests)", "setting": "Gaa KO mice", "result": "observed to decline under identical conditions throughout most of the study"}, {"measurement": "rhGAA that contained M6P / bound CIMPR (eluted with M6P)", "setting": "CIMPR", "result": 22, "unit": "%"}, {"measurement": "rhGAA that did not bind to the CIMPR", "setting": "CIMPR", "result": 78, "unit": "%"}, {"measurement": "concentration that saturates cellular receptors", "setting": "[2]; 16-hr incubation", "result": "about 250 nM"}, {"measurement": "uptake efficiency constant (Kuptake)", "setting": "[2]; extrapolated, FIG. 11C", "result": 56, "unit": "nM"}]}
{"molecule": "Myozyme®: conventional rhGAA product containing alglucosidase alfa, Genzyme", "values": [{"measurement": "rhGAA that contained M6P / bound CIMPR (eluted with M6P)", "setting": "CIMPR", "result": 27, "unit": "%"}, {"measurement": "rhGAA that did not bind to the CIMPR", "setting": "CIMPR", "result": 73, "unit": "%"}]}
{"molecule": "[199-arginine,223-histidine]prepro-α-glucosidase (human) [alglucosidase alfa, reference compound]", "values": [{"measurement": "apparent plasma half-life (t1/2)", "setting": "[3]", "result": "~1", "unit": "h"}]}
